Values of other authors in patent US11219614B2, “Combination cancer therapy with pentaaza macrocyclic ring complex and ascorbate compound” (Galera Labs, LLC, priority 2016, dated 2022).

Legend:
inflammation = details: rat model; cited from earlier work
[1] = system: collagen-induced arthritis; details: rat; cited from earlier work
[2] = system: lethal total body irradiation; details: adult mice; cited from earlier work
[3] = system: radiation-induced oral mucositis; details: hamster, acute radiation-induced oral mucositis; cited from earlier work
[4] = system: experimental model of colitis; details: rats; cited from earlier work
[5] = pH 7, absence of catalytic metals; cited from earlier work

Row | Compound | inflammation (inflammation) | joint disease [1] | radiation damage [2] | radiation damage [3] | injury to the colon [4] | stability of solution [5]
1 | [Cl-].[Cl-].[Mn+2].c1cc2nc(c1)CN[C@@H]1CCCC[C@H]1NCCN[C@@H]1CCCC[C@H]1NC2 [GC4403] | inhibit inflammation | prevent joint disease | attenuate the radiation damage | attenuate the radiation damage | very significantly reduce the injury to the colon | –
2 | O=C1O[C@H]([C@@H](O)CO)C(O)=C1O [ascorbic acid, (5R)-[(1S)-1,2-Dihydroxyethyl]-3,4-dihydroxyfuran-2(5H)-one] | – | – | – | – | – | stable at pH 7
